Measurements published in PMC8752738, “A propolis-derived small molecule ameliorates metabolic syndrome in obese mice by targeting the CREB/CRTC2 transcriptional complex” (Nature Communications, 2022).
“And” between values parts separate entries of the source, which are not always exact repeats. Identical values can stand only once.

Columns and labels:
[1] = molecular target: T1, HIS-CREB protein (Homo sapiens, UniProt P16220); assay: Surface plasmon resonance, immobilized HIS-CREB; assay type: binding; settings: dose-dependent
T1 construct: made in house
T1 sequence (P16220 whole entry): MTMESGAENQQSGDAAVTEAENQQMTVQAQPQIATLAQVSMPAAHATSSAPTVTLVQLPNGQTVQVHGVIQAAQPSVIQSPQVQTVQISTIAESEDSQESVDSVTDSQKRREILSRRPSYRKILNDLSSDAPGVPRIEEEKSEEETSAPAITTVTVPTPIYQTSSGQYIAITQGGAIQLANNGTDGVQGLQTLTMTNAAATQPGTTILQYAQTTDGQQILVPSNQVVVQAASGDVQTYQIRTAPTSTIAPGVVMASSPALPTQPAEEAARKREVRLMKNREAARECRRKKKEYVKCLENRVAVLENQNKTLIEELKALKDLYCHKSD
Description: BIACORE 100 (GE Healthcare) was employed to perform surface plasmon resonance. Briefly, purified HIS-CREB proteins were captured in the test channel of an NTA-chip (GE, Healthcare) in HEPES buffer (10 mM HEPES, 150 mM NaCl, 3 mM EDTA, pH 7.5). APC solutions with different concentrations were flowed through immobilized HIS-CREB proteins for indicated times, which caused equilibrium response values (RU) to change appropriately. The detected RU values were plotted by time using GraphPad Prism software.

[2] = molecular target: T2, GST-CREB / HIS-CRTC2-S171A interaction (Homo sapiens, UniProt P16220); assay: In vitro pull-down with purified GST-CREB and HIS-CRTC2-S171A; assay type: biochemical; settings: for Relative HIS/GST in GST-pull down fraction: Fig 2d replicates
T2 construct: made in house; host or cells: E. coli
T2 sequence (P16220 whole entry, stated change not applied): as the sequence (P16220 whole entry) above
Description: To further confirm whether APC disrupts the protein association between CREB and CRTC2, we performed GST-pull-down assays in which GST-CREB beads were used to immunoprecipitated FLAG-tagged CRTC2 proteins that were expressed in HEK293T cells. As expected, APC attenuated the amounts of FLAG-CRTC2 proteins recovered by GST-CREB beads from HEK293T cell lysates (Fig. 2a). […] In contrast, APC had little effect on the association of GST-CREB with HA-P300 (Supplementary Fig. 2a), as well as the interaction between endogenous CRTC2 and CBP proteins (Fig. 2c). Moreover, the interactions of CREB and the isoforms CRTC1 and CRTC3 were also attenuated by APC in overexpression HEK293T cells (Supplementary Fig. 2b, c).
Fig. 2 APC blocks interaction between CREB and CRTC2. a Analysis of GST-CREB immunoprecipitated with overexpressed FLAG-CRTC2 from the lysates of HEK293T cells. APC (10 μM) was added to the culture media for 1 h and the following IP mixture. The relative gray density of FLAG in GST-pull-down fraction is shown as a bar graph (bottom). One of three independent experiments is presented (top, n = 3). Data are represented as mean ± SEM); P values were determined by one-way ANOVA followed Dunnett’s multiple comparisons test. b Analysis of HA-CRTC2 immunoprecipitated with endogenous CREB from primary hepatocyte lysates. APC (10 μM) was added to the culture media for 1-h before 30-min of stimulation with glucagon (Gluc, 100 nM) and the following IP mixture as indicated. Top panel presents one of three independent experiments, and the relative gray density of HA in CREB-IP-faction is shown as a bar graph (bottom, n = 3). Data are represented as mean ± SEM; P values were determined by one-way ANOVA followed Dunnett’s multiple comparisons test. c Immunoblotting analysis of endogenous CREB, CRTC2, and CBP interaction by an anti-CRTC2 antibody from the lysate of primary hepatocytes. APC (10 μM) was added to the culture media for 1-h before 30-min stimulation with glucagon. Related CREB and CBP normalized by CRTC2, respectively, in CRTC2-IP fractions. The top panel presents one of three independent experiments, and the relative gray density of CREB and CBP normalized to CRTC2 in the CRTC2-IP-faction is shown as a bar graph (bottom, n = 3). Data are represented as mean ± SEM; P values were determined by two-way ANOVA followed Bonferroni’s multiple comparisons test. d Immunoblotting analysis of protein GST-CREB recovered HIS-CRTC2-S171A proteins purified from E. coli. The addition of APC (5, 10, or 50 μM) in pull-down mixtures is indicated. […] Data are represented as mean ± SEM; P values were determined by one-way ANOVA followed Dunnett’s multiple comparisons test (compared with APC = 0).

[3] = Daily food intake; assay type: in vivo, mouse; settings: for foodintake in DIO, mean / foodintake in DIO: DIO mice; for foodintake in DIO, mean: group mean, n=6; for foodintake in DIO: individual values; for foodintake of db/db: single animals; for foodintake of db/db, group mean: mean of APC group, N=5

## CC(C)=CCc1cc(C=CC(=O)O)cc(CC=C(C)C)c1O [APC, 3,5-diprenyl-4-hydroxycinnamic acid]
[1]
  binding to immobilized HIS-CREB (SPR): directly bound
[2]; APC 5 uM
  Relative HIS/GST in GST-pull down fraction: 0.8055 and 0.8618 and 0.7881
[2]; APC 10 uM
  Relative HIS/GST in GST-pull down fraction: 0.4842 and 0.3120 and 0.3223
[2]; APC 50 uM
  Relative HIS/GST in GST-pull down fraction: 0.1707 and 0.1125 and 0.1021
[2]; purified proteins, APC 5, 10, 50 μM, dose-dependent
  HIS-CRTC2-S171A recovered by GST-CREB: significantly diminished
[3]; APC 10mg/kg
  foodintake in DIO, mean: 3.935 g/mouse/day
  foodintake in DIO: 3.44 g/mouse/day and 4.55 g/mouse/day and 3.83 g/mouse/day and 3.87 g/mouse/day and 4.39 g/mouse/day and 3.53 g/mouse/day
[3]; APC 20mg/kg
  foodintake in DIO, mean: 3.517 g/mouse/day
  foodintake in DIO: 3.89 g/mouse/day and 3.58 g/mouse/day and 3.67 g/mouse/day and 3.06 g/mouse/day and 3.73 g/mouse/day and 3.17 g/mouse/day
[3]; db/db mice, day 1
  foodintake of db/db: 6.30 g/per mouse/24h and 5.90 g/per mouse/24h and 7.80 g/per mouse/24h and 7.20 g/per mouse/24h and 6.43 g/per mouse/24h
[3]; db/db mice, day 2
  foodintake of db/db, group mean: 6.34 g/per mouse/24h
  foodintake of db/db: 5.90 g/per mouse/24h and 6.90 g/per mouse/24h and 7.10 g/per mouse/24h and 7.50 g/per mouse/24h and 6.30 g/per mouse/24h
[3]; db/db mice, day 3
  foodintake of db/db, group mean: 6.44 g/per mouse/24h
  foodintake of db/db: 6.10 g/per mouse/24h and 7.30 g/per mouse/24h and 5.80 g/per mouse/24h and 7.20 g/per mouse/24h and 6.20 g/per mouse/24h
[3]; db/db mice, day 4
  foodintake of db/db, group mean: 6.5 g/per mouse/24h
  foodintake of db/db: 7.40 g/per mouse/24h and 6.30 g/per mouse/24h (2×) and 6.20 g/per mouse/24h and 5.90 g/per mouse/24h
[3]; db/db mice, day 5
  foodintake of db/db, group mean: 6.68 g/per mouse/24h
  foodintake of db/db: 5.70 g/per mouse/24h and 7.20 g/per mouse/24h and 6.80 g/per mouse/24h and 7.90 g/per mouse/24h and 5.80 g/per mouse/24h
[3]; db/db mice, day 6
  foodintake of db/db, group mean: 6.9 g/per mouse/24h
  foodintake of db/db: 8.00 g/per mouse/24h and 6.80 g/per mouse/24h and 6.10 g/per mouse/24h and 7.20 g/per mouse/24h and 6.40 g/per mouse/24h
[3]; db/db mice, Mean of APC, two-way RM ANOVA
  foodintake of db/db, column mean over days 1-6: 6.737 g/per mouse/24h
[3]; obese mice, 2 weeks of APC injection
  daily food intake: no significant effects
